Measured values reported in US20080139534A1, “Bisbenzamidines and bisbenzamidoximes for the treatment of human African trypanosomiasis” (XAVIER UNIVERSITY OF LOUISIANA, priority 2006, published 2008).
Marks after values point to notes of the source that are not given here.

How the values were obtained:
[1] = test system: calf thymus DNA; experiment: Thermal denaturation study, DNA binding affinity (ΔTm); conditions: 1:5 compound to base pair ratio;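 further: shift in midpoint melting temperature of calf thymus DNA thermal denaturation curves caused by compound binding, values averaged over at least two determinations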
Procedure: (§1) The binding affinity was measured by determining the change in the midpoint (Tm) of the thermal denaturation curves of calf thymus DNA as well as poly(dA-dT) at a 1:5 compound to base pair ratio.

[2] = test system: T. b. rhodesiense KETRI 243; experiment: In vitro trypanocidal activity, bloodforms in HMI-18 medium, Coulter counts; type: cell-based, Trypanosoma brucei rhodesiense; conditions: 48 h exposure
Procedure: (§2) The compounds were tested against trypanosome isolates grown as blood forms in HMI-18 medium containing 20% horse serum in 24 well microplates at 37° C. in 5% CO2. Wells were inoculated with 1×10^5 trypanosomes. […] One-half the volume was replaced daily. Cell counts were made daily with a Coulter Counter, Model Z1 (Beckman Coulter, Miami, Fla., USA). Cells were diluted with Isoton I buffer (Beckman Coulter) and the aperture was standardized at 5.14 μm. Background checks were performed daily on 1:10 dilutions of medium. Counts, normalization, and coincident counts were accounted for by the standardized Coulter analysis program. Occasionally, hemocytometer counts were performed as a check on the validity of the Coulter program. IC50 values were determined after 48 h from semi-log plots and the values are the result of duplicate determinations. Initially a broad concentration curve was used and then a close concentration curve from which IC50 values were determined. Assays were done in duplicate and each point was the average of the two. Control cells grew to 5×10^6/ml.
(§3) Coulter counts were made daily and IC50 values determined after 48 hours exposure.

[3] = test system: T. b. brucei Lab 110 EATRO; experiment: as above; type: cell-based, Trypanosoma brucei brucei; conditions: 48 h exposure, bloodforms; read-out: Lab 100 EATRO IC50
Procedure: as §2, §3

[4] = test system: poly(dA-dT); experiment: Thermal denaturation study, DNA binding affinity (ΔTm); conditions: 1:5 compound to base pair ratio;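 further: shift in the midpoint temperature of the thermal melting curve of poly(dA-dT), each value the mean of two or more independent determinations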
Procedure: as §1

[5] = test system: T. b. brucei Lab 110 EATRO; experiment: In vivo efficacy in infected mice; design: species or system Trypanosoma brucei brucei
[6] = mice, 1, 2.5, 5, 10, 15, 25 mg/kg/day i.p. for 3 days (all doses failed to cure)
[7] = mice, 1, 2.5, 5, 10, 15, 25 mg/kg/day i.p. for 3 days (all doses)
[8] = mice, 1 mg/kg/day i.p. for 3 days

## CCC(C)CNC(=N)c1ccc(N2CCN(c3ccc(C(=N)NCC(C)CC)cc3)CC2)cc1.Cl.Cl (centres unmarked) [compound 0138]
[1]
  DNA Binding Δ Tm Calf thymus: 12.9 °C
[2]
  IC50: 39 nM
[3]
  IC50: 13 nM
[4]
  DNA Binding Δ Tm Poly (dA-dT): 16.0 °C

## N=C(NO)c1ccc(C(=O)Nc2ccc(NC(=O)c3ccc(C(=N)NO)cc3)cc2)cc1 [compound 0353]
[1]
  DNA Binding Δ Tm Calf thymus: 0.4 °C
[4]
  DNA Binding Δ Tm Poly (dA-dT): 0.1 °C

## CCCCCCCCCCNC(=N)c1ccc(N2CCN(c3ccc(C(=N)NCCCCCCCCCC)cc3)CC2)cc1.Cl.Cl [compound 0131]
[1]
  DNA Binding Δ Tm Calf thymus: 1.3 °C
[2]
  IC50: 220 nM
[3]
  IC50: 180 nM
[5]; [6]
  # Cured/#Treated (%): 0/3^a
[5]; [7]
  MSD: 5 days

## CN1CCN(C)C1c1ccc(N2CCN(c3ccc(C4N(C)CCN4C)cc3)CC2)cc1 [compound 0108]
[1]
  DNA Binding Δ Tm Calf thymus: 2.4 °C
[2]
  IC50: 2320 nM
[3]
  IC50: 6800 nM
[4]
  DNA Binding Δ Tm Poly (dA-dT): 1.8 °C

## O=[N+]([O-])c1ccc(N2CCN(c3ccc([N+](=O)[O-])cc3)CC2)cc1 [compound 0119]
[1]
  DNA Binding Δ Tm Calf thymus: 0.1 °C
[2]
  IC50: 250 nM
[3]
  IC50: 137 nM
[4]
  DNA Binding Δ Tm Poly (dA-dT): 0.0 °C

## N=C(NO)c1ccc(NC(=O)c2ccc(C(=O)Nc3ccc(C(=N)NO)cc3)cc2)cc1 [compound 0333]
[1]
  DNA Binding Δ Tm Calf thymus: 0.6 °C
[4]
  DNA Binding Δ Tm Poly (dA-dT): 0.0 °C

## O=C(Nc1ccc(C2=NCCN2)cc1)C1CC1C(=O)Nc1ccc(C2=NCCN2)cc1 (centres unmarked) [8IM]
[1]
  DNA Binding Δ Tm Calf thymus: 6.0 °C
[2]
  IC50: 440 nM
[3]
  IC50: > 1000 nM
[4]
  DNA Binding Δ Tm Poly (dA-dT): 9.6 °C

## CCCCCNC(=N)c1ccc(N2CCN(c3ccc(C(=N)NCCCCC)cc3)CC2)cc1.Cl.Cl [compound 0127]
[1]
  DNA Binding Δ Tm Calf thymus: 16.9 °C
[3]
  IC50: 3 nM
[4]
  DNA Binding Δ Tm Poly (dA-dT): 22.5 °C

## N=C(NO)c1ccc(C(=O)Nc2cccc(NC(=O)c3ccc(C(=N)NO)cc3)c2)cc1 [compound 0343]
[1]
  DNA Binding Δ Tm Calf thymus: −0.3 °C
[4]
  DNA Binding Δ Tm Poly (dA-dT): 0.1 °C

## N#Cc1ccc(NC(=O)C(=O)Nc2ccc(C#N)cc2)cc1 [compound 0713]
[2]
  IC50: 340 nM
[3]
  IC50: 680 nM

## Cl.Cl.N=C(NC1CC1)c1ccc(N2CCN(c3ccc(C(=N)NC4CC4)cc3)CC2)cc1 [63C, N,N′-Dicyclopropyl 4,4′-(1,4-piperazinediyl)bisbenzenecarboxidamide]
[1]
  DNA Binding Δ Tm Calf thymus: 14.5 °C
[4]
  DNA Binding Δ Tm Poly (dA-dT): 23.9 °C

## Cl.Cl.N=C(NC1CCC1)c1ccc(N2CCN(c3ccc(C(=N)NC4CCC4)cc3)CC2)cc1 [compound 0143]
[1]
  DNA Binding Δ Tm Calf thymus: 16.4 °C
[2]
  IC50: 51 nM
[3]
  IC50: 6 nM
[5]; [8]
  # Cured/#Treated (%): 0/3
  MSD: 5 days
[5]; mice, 5 mg/kg/day i.p. for 3 days
  MSD: 11 days
[5]; mice, 10 mg/kg/day i.p. for 3 days
  MSD: >30 days

## N=C(N)c1ccc(NC(=O)CCC(=O)Nc2ccc(C(=N)N)cc2)cc1 [compound 0707]
[2]
  IC50: 2190 nM
[3]
  IC50: 9000 nM

## O=Cc1ccc(N2CCN(c3ccc(C=O)cc3)CC2)cc1 [compound 0107]
[1]
  DNA Binding Δ Tm Calf thymus: −0.2 °C
[4]
  DNA Binding Δ Tm Poly (dA-dT): 0.0 °C

## N=C(N)c1ccc(NC(=O)CCCCC(=O)Nc2cccc(C(=N)N)c2)cc1 [compound 0721]
[2]
  IC50: 7 nM
[3]
  IC50: 12.5 nM

## NC(=O)c1ccc(NC(=O)CCCCC(=O)Nc2ccc(C(N)=O)cc2)cc1 [compound 0716]
[2]
  IC50: 1100 nM
[3]
  IC50: 2800 nM

## N=C(N)c1ccc(OCCCCCOc2ccc(C(=N)N)cc2)cc1 [Pentamidine, reference compound]
[1]
  DNA Binding Δ Tm Calf thymus: 11.1 °C
[2]; Trypanosoma brucei, RHODESIENSE
  IC50: 2.32 nM
[4]
  DNA Binding Δ Tm Poly (dA-dT): 20.6 °C
[5]; mice, 1, 2.5, 5, 10, 25 mg/kg/day i.p. for 3 days (all doses cured)
  # Cured/#Treated (%): 5/5*
[5]; mice, 1, 2.5, 5, 10, 25 mg/kg/day i.p. for 3 days (all doses)
  MSD: >30 days

## NC(=O)c1cccc(NC(=O)CCCCC(=O)Nc2cccc(C(N)=O)c2)c1 [compound 0717]
[2]
  IC50: 1980 nM
[5]; [6]
  # Cured/#Treated (%): 0/3^a
[5]; [7]
  MSD: 5 days

## N=C(NO)c1ccc(NC(=O)c2cccc(C(=O)Nc3ccc(C(=N)NO)cc3)c2)cc1 [compound 0323]
[1]
  DNA Binding Δ Tm Calf thymus: 0.6 °C
[4]
  DNA Binding Δ Tm Poly (dA-dT): 0.1 °C

## CCCCCCCCNC(=N)c1ccc(N2CCN(c3ccc(C(=N)NCCCCCCCC)cc3)CC2)cc1.Cl.Cl [compound 0130]
[1]
  DNA Binding Δ Tm Calf thymus: 4.2 °C
[2]
  IC50: 19 nM
[3]
  IC50: 3.65 nM
[5]; mice, 1, 2.5, 5, 10, 15, 20 mg/kg/day i.p. for 3 days (all doses failed to cure)
  # Cured/#Treated (%): 0/3^a
[5]; mice, 1, 2.5, 5, 10, 15, 20 mg/kg/day i.p. for 3 days (all doses)
  MSD: 5 days

## O=C(Nc1ccccc1)C(=O)Nc1ccccc1 [compound 0714]
[2]
  IC50: 155 nM
